Drawing on patent publication US7868026B2, “Therapeutic compounds” (Pfizer Inc., priority 2005, dated 2011), this text covers Ki and IC50 for 26 compounds.

Like-named read-outs stand apart in the source and are kept apart here.

What all share (format): biochemical
The target in experiment [1] is T1, CYP3A4 (Homo sapiens, UniProt P08684). The experiment can be described thus: Determination of compound Kiapp against recombinant CYP3A4 enzyme (BFC fluorescent substrate). In short, it runs like this:
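Recombinant CYP3A4 (5.5 or 8 nM, with or without b5 depending on source) pre-incubated with inhibitor ≥30 min at room temperature in 100 mM sodium phosphate pH 7.0, 5 mM TCEP, 2% DMF. Reaction started with 200 uM NADPH and 5 uM BFC; initial fluorescence rates over 5 min fitted to Morrison tight-binding (non-partial) or Szedlacsek (partial) equations for Kiapp.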

The target in experiment [2] is T1, CYP3A4. The experiment can be described thus: Determination of IC50 against CYP3A4 by measurement of inhibition of testosterone metabolism (human liver microsomes, 6-β-OH-testosterone by LC-MS/MS). Set-up: 0.1 mg/mL human liver microsomes. As to conditions: read-out: IC50 (Testo.). In short, it runs like this:
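Human liver microsomes (0.1 mg/mL) incubated with 25 μM testosterone and 1 mM NADPH in 100 mM potassium phosphate, pH 7.4, for eight minutes. 6-β-OH-testosterone measured by LC-MS/MS in MRM mode against an internal standard and quantified from a metabolite standard curve.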

Experiment [3] concerns the target T1, CYP3A4. In words: Determination of IC50 against CYP3A4 by measurement of inhibition of midazolam metabolism (human liver microsomes, 1-hydroxymidazolam by LC-MS/MS). Particulars: 2 μM midazolam, 0.1 mg/mL human liver microsomes. More on the design: 0.1 mg/mL human liver microsomes. In outline:
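Human liver microsomes (0.1 mg/mL) incubated 8 min with 2 μM midazolam and 1 mM NADPH in 100 mM potassium phosphate, pH 7.4. 1-Hydroxymidazolam quantified by LC-MS/MS (MRM) as peak area ratio to internal standard against a metabolite standard curve.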

[4] abbreviates: Baculo. enzyme preparation, read-out: Kiapp (BFC, Baculo.).
Where [5] appears, read: Super. enzyme preparation, read-out: Kiapp (BFC, Super.).

T1 sequence (P08684 whole entry): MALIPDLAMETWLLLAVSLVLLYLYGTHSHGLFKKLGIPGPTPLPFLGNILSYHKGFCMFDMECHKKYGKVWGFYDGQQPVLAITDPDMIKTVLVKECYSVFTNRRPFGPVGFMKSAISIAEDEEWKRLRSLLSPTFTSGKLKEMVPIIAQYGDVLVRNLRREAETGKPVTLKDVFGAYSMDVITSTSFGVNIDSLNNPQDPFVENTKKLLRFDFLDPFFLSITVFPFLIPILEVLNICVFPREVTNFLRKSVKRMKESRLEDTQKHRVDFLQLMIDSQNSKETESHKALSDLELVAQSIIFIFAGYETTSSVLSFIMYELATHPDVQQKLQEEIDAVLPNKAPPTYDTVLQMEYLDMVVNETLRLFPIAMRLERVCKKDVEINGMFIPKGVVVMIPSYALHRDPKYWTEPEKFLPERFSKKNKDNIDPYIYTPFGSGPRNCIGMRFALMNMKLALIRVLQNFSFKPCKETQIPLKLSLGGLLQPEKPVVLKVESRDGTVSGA

Usually IC50 stands for the concentration needed to halve the response being measured. In the case of `COc1cncc(NS(=O)(=O)c2ccccc2C(=O)NCCCc2ccccc2OC)c1` [Example 234, N-[3-(2-methoxyphenyl)propyl]-2-{[(5-methoxypyridin-3-yl)amino]sulfonyl}benzamide], the values for the Ki at CYP3A4 [1] (setting [4]) and on CYP3A4 [1] (setting [5]) were 37.9 nM and 8.1 nM, respectively. Further, the IC50 on CYP3A4 [2] and on CYP3A4 [3] was above 750 nM in each case.

As for `CC(C)(O)c1ccc(CNC(=O)c2ccccc2S(=O)(=O)Nc2cccnc2)cc1` [Example 86, N-[4-(1-hydroxy-1-methylethyl)benzyl]-2-[(pyridin-3-ylamino)sulfonyl]benzamide], the Ki is above 1000 nM at CYP3A4 [1] (setting [4]) and 209 nM on CYP3A4 [1] (setting [5]). In addition, the values for the IC50 at CYP3A4 [2] and at CYP3A4 [3] were 27 nM and 118 nM, respectively.

Turning to `COc1cncc(NS(=O)(=O)c2ccccc2C(=O)NCCc2ccc(F)cc2F)c1` [Example 191, N-[2-(2,4-difluorophenyl)ethyl]-2-{[(5-methoxypyridin-3-yl)amino]sulfonyl}benzamide], the Ki is 59.7 nM on CYP3A4 [1] (setting [4]) and 5 nM on CYP3A4 [1] (setting [5]). Also, the IC50 on CYP3A4 [2] was determined as 15 nM; on CYP3A4 [3], 10 nM.

Turning to `Cc1cncc(NS(=O)(=O)c2ccccc2C(=O)NCC(C)(C)C)c1` [Example 330, N-(2,2-dimethylpropyl)-2-{[(5-methylpyridin-3-yl)amino]sulfonyl}benzamide], the Ki came to 204 nM at CYP3A4 [1] (setting [4]) and 22.7 nM at CYP3A4 [1] (setting [5]). For the same compound, the IC50 amounted to 55 nM on CYP3A4 [2] and 60 nM on CYP3A4 [3].

With `COc1ccncc1NS(=O)(=O)c1ccccc1C(=O)NCCc1ccccc1F` [Example 222], the Ki at CYP3A4 [1] (setting [4]) turned out to be 207 nM; at CYP3A4 [1] (setting [5]), 12.7 nM. Also, the results for the IC50 on CYP3A4 [2] and on CYP3A4 [3] were 34 nM and 15 nM, respectively.

For `COc1ccncc1NS(=O)(=O)c1ccccc1C(=O)NCc1ccc(F)c(F)c1` [Example 257, N-(3,4-difluorobenzyl)-2-{[(4-methoxypyridin-3-yl)amino]sulfonyl}benzamide], the Ki is 101 nM on CYP3A4 [1] (setting [4]) and 14.1 nM on CYP3A4 [1] (setting [5]). In addition, the IC50 at CYP3A4 [2] worked out at 14 nM; at CYP3A4 [3], 15 nM.

With `Cc1cncc(NS(=O)(=O)c2ccccc2C(=O)NCCc2ccccc2F)c1` [Example 227, N-[2-(2-fluorophenyl)ethyl]-2-{[(5-methylpyridin-3-yl)amino]sulfonyl}benzamide], the Ki was 86.8 nM at CYP3A4 [1] (setting [4]) and 8.6 nM at CYP3A4 [1] (setting [5]). In addition, the results for the IC50 at CYP3A4 [2] and at CYP3A4 [3] were 11 nM and 5 nM, respectively.

Regarding `Cc1cncc(NS(=O)(=O)c2ccccc2C(=O)NCc2cc(Cl)cc(Cl)c2)c1` [Example 155, N-(3,5-dichlorobenzyl)-2-{[(5-methylpyridin-3-yl)amino]sulfonyl}benzamide], the Ki at CYP3A4 [1] (setting [4]) came out at 2.8 nM; on CYP3A4 [1] (setting [5]) it was 1.6 nM. Also, the IC50 at CYP3A4 [2] worked out at 15 nM; at CYP3A4 [3], 8 nM.

Regarding `COc1cncc(NS(=O)(=O)c2ccccc2C(=O)NC(C)(C)c2ccccc2)c1` [Example 381, 2-{[(5-methoxypyridin-3-yl)amino]sulfonyl}-N-(1-methyl-1-phenylethyl)benzamide], the Ki was found to be 52 nM at CYP3A4 [1] (setting [4]) and 2.79 nM on CYP3A4 [1] (setting [5]). Besides, the IC50 on CYP3A4 [2] came to 64 nM; on CYP3A4 [3], 30 nM.

For `CCCCCNC(=O)c1ccccc1S(=O)(=O)Nc1cncc(OC)c1` [Example 377, 2-{[(5-methoxypyridin-3-yl)amino]sulfonyl}-N-pentylbenzamide], the Ki on CYP3A4 [1] (setting [4]) stood at 76.3 nM; on CYP3A4 [1] (setting [5]), 17.6 nM. Further, the figures for the IC50 on CYP3A4 [2] and at CYP3A4 [3] were 33 nM and 21 nM, respectively.

Turning to `COc1ccncc1NS(=O)(=O)c1ccccc1C(=O)NCCc1ccccc1C` [Example 275, 2-{[(4-methoxypyridin-3-yl)amino]sulfonyl}-N-[2-(2-methylphenyl)ethyl]benzamide], the Ki was determined as 42.9 nM at CYP3A4 [1] (setting [4]) and 3.76 nM at CYP3A4 [1] (setting [5]). In addition, the IC50 at CYP3A4 [2] amounted to 7 nM; at CYP3A4 [3], 9 nM.

Consider `CCOCCNC(=O)c1ccccc1S(=O)(=O)Nc1cnccc1OC` [Example 223, N-(2-ethoxyethyl)-2-{[(4-methoxypyridin-3-yl)amino]sulfonyl}benzamide], for which the Ki was above 1000 nM on CYP3A4 [1] (setting [4]) and 326 nM at CYP3A4 [1] (setting [5]). Moreover, the IC50 at CYP3A4 [2] is 745 nM; on CYP3A4 [3] it was 260 nM.

Regarding `O=C(NCc1ccc(F)cc1)c1ccccc1S(=O)(=O)Nc1cccnc1` [Example 9, N-(4-fluorobenzyl)-2-[(pyridin-3-ylamino)sulfonyl]benzamide], the Ki at CYP3A4 [1] (setting [4]) was found to be 173 nM; on CYP3A4 [1] (setting [5]), 4 nM. For the same compound, the IC50 is 9 nM at CYP3A4 [2] and 11 nM on CYP3A4 [3].

Turning to `COc1cncc(NS(=O)(=O)c2ccc(Cl)cc2C(=O)NCc2ccc(F)cc2)c1` [Example 310, 5-chloro-N-(4-fluorobenzyl)-2-{[(5-methoxypyridin-3-yl)amino]sulfonyl}benzamide], the Ki at CYP3A4 [1] (setting [4]) worked out at 140 nM; at CYP3A4 [1] (setting [5]) it was 28.3 nM. The IC50 on CYP3A4 [2] came to 64 nM; on CYP3A4 [3] it was 53 nM.

As for `CCOc1cncc(NS(=O)(=O)c2ccccc2C(=O)NC(C)(C)CC)c1` [Example 300, N-(1,1-dimethylpropyl)-2-{[(5-ethoxypyridin-3-yl)amino]sulfonyl}benzamide], the Ki worked out at 57.6 nM on CYP3A4 [1] (setting [4]) and 19.5 nM at CYP3A4 [1] (setting [5]). Also, the 50% inhibitory concentration (IC50) stood at 39 nM at CYP3A4 [2] and 16 nM on CYP3A4 [3].

On to `Cc1cncc(NS(=O)(=O)c2ccccc2C(=O)NCc2ccc(F)c(Cl)c2)c1` [Example 158, N-(3-chloro-4-fluorobenzyl)-2-{[(5-methylpyridin-3-yl)amino]sulfonyl}benzamide], for which the Ki on CYP3A4 [1] (setting [4]) was 19.7 nM; at CYP3A4 [1] (setting [5]), 0.9 nM. Moreover, the IC50 at CYP3A4 [2] was determined as 10 nM; on CYP3A4 [3], 6 nM.

In the case of `CCCCN(C)C(=O)c1ccccc1S(=O)(=O)Nc1cccnc1` [Example 376, N-butyl-N-methyl-2-[(pyridin-3-ylamino)sulfonyl]benzamide], the values for the Ki on CYP3A4 [1] (setting [4]) and on CYP3A4 [1] (setting [5]) were 117 nM and 73 nM, respectively. The IC50 was 43 nM at CYP3A4 [2] and 27 nM on CYP3A4 [3].

For `CN(c1cccnc1)S(=O)(=O)c1ccccc1C(=O)NCC(C)(C)C` [Example 359, N-(2,2-dimethylpropyl)-2-{[methyl(pyridin-3-yl)amino]sulfonyl}benzamide], the Ki on CYP3A4 [1] (setting [4]) turned out to be 593 nM; on CYP3A4 [1] (setting [5]), 140 nM. Further, the IC50 stood at 260 nM on CYP3A4 [2] and 101 nM on CYP3A4 [3].

For the compound `Cc1ccncc1NS(=O)(=O)c1ccccc1C(=O)NCc1ccc(F)c(Cl)c1` [Example 168, N-(3-chloro-4-fluorobenzyl)-2-{[(4-methylpyridin-3-yl)amino]sulfonyl}benzamide], the Ki came out at 66 nM at CYP3A4 [1] (setting [4]) and 11.7 nM at CYP3A4 [1] (setting [5]). Also, the results for the IC50 at CYP3A4 [2] and on CYP3A4 [3] were 18 nM and 9 nM, respectively.

`CN(c1cccnc1)S(=O)(=O)c1ccccc1C(=O)N1CCOCC1` [Example 326, N-methyl-2-(morpholin-4-ylcarbonyl)-N-pyridin-3-ylbenzenesulfonamide]: the Ki on CYP3A4 [1] (setting [4]) turned out to be 884 nM; at CYP3A4 [1] (setting [5]), 273 nM. Further, the IC50 on CYP3A4 [2] was found to be 164 nM; at CYP3A4 [3], 132 nM.

On to `CC1CCN(CC(C)(C)NC(=O)c2ccccc2S(=O)(=O)Nc2cccnc2)CC1` [Example 1, N-[1,1-dimethyl-2-(4-methylpiperidin-1-yl)ethyl]-2-[(pyridin-3-ylamino)sulfonyl]benzamide], for which the Ki at CYP3A4 [1] (setting [4]) came to 538 nM; on CYP3A4 [1] (setting [5]), 662 nM. Also, the IC50 is below 3 nM on CYP3A4 [2] and 390 nM at CYP3A4 [3].

For `COc1cncc(NS(=O)(=O)c2ccc(Cl)cc2C(=O)NCCC(C)C)c1` [Example 295, 5-chloro-2-{[(5-methoxypyridin-3-yl)amino]sulfonyl}-N-(3-methylbutyl)benzamide], the Ki worked out at 184 nM on CYP3A4 [1] (setting [4]) and 42 nM at CYP3A4 [1] (setting [5]). Further, the IC50 on CYP3A4 [2] is 231 nM; at CYP3A4 [3], 42 nM.

Take `CN(Cc1ccccc1F)C(=O)c1ccccc1S(=O)(=O)Nc1cccnc1` [Example 73, N-(2-fluorobenzyl)-N-methyl-2-[(pyridin-3-ylamino)sulfonyl]benzamide]: the Ki was found to be 124 nM on CYP3A4 [1] (setting [4]) and 10.7 nM at CYP3A4 [1] (setting [5]). Besides, the figures for the IC50 at CYP3A4 [2] and on CYP3A4 [3] were below 3 nM and 38 nM, respectively.

Turning to `O=C(NCc1ccc(F)c(F)c1)c1ccccc1S(=O)(=O)Nc1cccnc1` [Example 85, N-(3,4-difluorobenzyl)-2-[(pyridin-3-ylamino)sulfonyl]benzamide], the Ki on CYP3A4 [1] (setting [4]) amounted to 105 nM; on CYP3A4 [1] (setting [5]) it was 12.1 nM. Also, the IC50 on CYP3A4 [2] came out at 41 nM; at CYP3A4 [3] it was 16 nM.

With `COc1cncc(NS(=O)(=O)c2ccccc2C(=O)NCc2ccc(S(C)(=O)=O)cc2)c1` [Example 233, 2-{[(5-methoxypyridin-3-yl)amino]sulfonyl}-N-[4-(methylsulfonyl)benzyl]benzamide], the Ki on CYP3A4 [1] (setting [4]) is above 1000 nM; at CYP3A4 [1] (setting [5]) it was 182 nM. The 50% inhibitory concentration (IC50) on CYP3A4 [2] is 195 nM; on CYP3A4 [3], 67 nM.

For `CCCCNC(=O)c1ccccc1S(=O)(=O)Nc1cncc(OC)c1` [Example 17, N-butyl-2-{[(5-methoxypyridin-3-yl)amino]sulfonyl}benzamide], the Ki at CYP3A4 [1] (setting [4]) stood at 133 nM. Besides, the results for the IC50 on CYP3A4 [2] and at CYP3A4 [3] were 62 nM and 26 nM, respectively.
